In US20120165331A1, “Di/tri-aza-spiro-C9-C11alkanes” (priority 2010, published 2012):

Tests used:
human orexin 2 receptor [1] = target: T1, human orexin 2 receptor (Homo sapiens, UniProt O43614); assay: Calcium accumulation in cells (FLIPR), antagonism of orexin A, human orexin 2 receptor; type: cell-based; conditions: calcium accumulation, antagonism of orexin A, Cheng-Prusoff corrected; read-out: FLIPR hOx2R Ki
T1 construct: expressed in transfected cells
T1 sequence (O43614 1-444): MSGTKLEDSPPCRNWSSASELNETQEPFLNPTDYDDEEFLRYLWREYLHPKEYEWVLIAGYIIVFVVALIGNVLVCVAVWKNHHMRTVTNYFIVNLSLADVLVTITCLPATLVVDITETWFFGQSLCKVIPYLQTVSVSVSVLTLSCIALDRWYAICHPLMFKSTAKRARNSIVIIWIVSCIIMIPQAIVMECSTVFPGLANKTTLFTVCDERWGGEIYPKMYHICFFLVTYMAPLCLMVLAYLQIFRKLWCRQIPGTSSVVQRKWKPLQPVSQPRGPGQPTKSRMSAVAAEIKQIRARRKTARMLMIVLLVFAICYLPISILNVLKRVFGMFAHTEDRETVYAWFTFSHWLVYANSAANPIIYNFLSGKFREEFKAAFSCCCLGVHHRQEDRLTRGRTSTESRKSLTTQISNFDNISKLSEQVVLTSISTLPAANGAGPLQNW

human orexin 1 receptor [2] = target: T2, human orexin 1 receptor (Homo sapiens, UniProt O43613); assay: Radioligand binding assay ([3H]-SB649868 competition), human orexin 1 receptor; conditions: radioligand [3H]-SB649868; read-out: Binding hOx1R Kd
T2 construct: expressed in transfected cells
T2 sequence (O43613 1-425): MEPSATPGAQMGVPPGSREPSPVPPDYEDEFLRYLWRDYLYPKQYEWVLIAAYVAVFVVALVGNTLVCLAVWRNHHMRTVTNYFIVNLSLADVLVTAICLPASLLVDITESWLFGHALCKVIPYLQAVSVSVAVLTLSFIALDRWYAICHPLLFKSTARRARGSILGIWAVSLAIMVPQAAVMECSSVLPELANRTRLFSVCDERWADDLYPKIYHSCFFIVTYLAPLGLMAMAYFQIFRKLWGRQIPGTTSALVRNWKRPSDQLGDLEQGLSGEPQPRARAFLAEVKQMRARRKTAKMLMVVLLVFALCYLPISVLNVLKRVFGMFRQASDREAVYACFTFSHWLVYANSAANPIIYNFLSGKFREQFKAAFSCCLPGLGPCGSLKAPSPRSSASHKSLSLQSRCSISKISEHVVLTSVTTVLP
In short: (§1)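 Competition binding against roughly 1 nM [3H]-SB649868, run in triplicate for 1 h at room temperature on CHO or HEK membranes bearing human receptor (10 mM HEPES pH 7.5, 0.5% BSA, 5 mM MgCl2, 1 mM CaCl2, 0.05% tween). Bound radioactivity after vacuum filtration; almorexant 10 μM for non-specific binding; expressed as Kd.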

human orexin 2 receptor [3] = target: T1, human orexin 2 receptor; assay: Radioligand binding assay ([3H]-SB649868 competition), human orexin 2 receptor; conditions: radioligand [3H]-SB649868; read-out: Binding hOx2R Kd
In short: as §1

human orexin 1 receptor [4] = target: T2, human orexin 1 receptor; assay: Calcium accumulation in cells (FLIPR), antagonism of orexin A, human orexin 1 receptor; type: cell-based; conditions: for Ki: calcium accumulation, antagonism of orexin A, Cheng-Prusoff corrected, read-out: FLIPR hOx1R Ki

Structure (SMILES) | Ki (human orexin 2 receptor [1]) | Kd (human orexin 1 receptor [2]) | Kd (human orexin 2 receptor [3]) | Ki (human orexin 1 receptor [4]) | inhibition at 10 µM (human orexin 1 receptor [4]; measured at a concentration of 10 μM of compound, read-out: FLIPR hOx1R % inhibition)
Cc1cc(C)nc(N2CCC3(CC2)NCCN(Cc2nn(C)nc2-c2ccc4c(c2)OCCO4)C3=O)n1 [Example 1.80, 4-((5-(2,3-dihydro-benzo[b][1,4]dioxin-6-yl)-2-methyl-2H-1,2,3-triazol-4-yl)methyl)-9-(4,6-dimethylpyrimidin-2-yl)-1,4,9-triazaspiro[5.5] undecan-5-one] | 0.0043 µM | 0.86 µM | 0.027 µM | 0.501 µM | –
Cc1cc(C)nc(N2CCC3(CC2)OCCN(Cc2c[nH]c4ccccc24)C3=O)n1 [Example 2.1, 4-((1H-indol-3-yl)methyl)-9-(4,6-dimethylpyrimidin-2-yl)-1-oxa-4,9-diazaspiro[5.5]undecan-5-one] | 0.029 µM | 1.32 µM | 0.031 µM | 1.7 µM | –
Cc1cc(C)nc(N2CCC3(CC2)OCCN(Cc2n[nH]c4ccccc24)C3=O)n1 [Example 2.2, 9-(4,6-Dimethyl-pyrimidin-2-yl)-4-(1H-indazol-3-ylmethyl)-1-oxa-4,9-diaza-spiro[5.5]undecan-5-one] | 0.055 µM | 1.84 µM | 0.071 µM | 1.8 µM | –
Cc1cc(C)nc(N2CCC3(CC2)OCCN(Cc2c[nH]c4ccc(F)cc24)C3=O)n1 [Example 2.6, 9-(4,6-Dimethylpyrimidin-2-yl)-4-((5-fluoro-1H-indol-3-yl)methyl)-1-oxa-4,9-diazaspiro[5.5]undecan-5-one] | 0.013 µM | 1.06 µM | 0.026 µM | 1.06 µM | –
COc1ccc2[nH]cc(CN3CCOC4(CCN(c5nc(C)cc(C)n5)CC4)C3=O)c2c1 [Example 2.7, 9-(4,6-Dimethylpyrimidin-2-yl)-4-((5-methoxy-1H-indol-3-yl)methyl)-1-oxa-4,9-diazaspiro[5.5]undecan-5-one] | 0.001 µM | 0.213 µM | 0.006 µM | 0.258 µM | –
Cc1ccnc(N2CCC3(CC2)OCCN(Cc2c[nH]c4ccccc24)C3=O)n1 [Example 2.8, 4-((1H-Indol-3-yl)methyl)-9-(4-methylpyrimidin-2-yl)-1-oxa-4,9-diazaspiro[5.5]undecan-5-one] | 0.105 µM | 5.61 µM | 0.078 µM | 2.46 µM | –
Cc1cc(C)nc(N2CCC3(CC2)OCCN(Cc2ccccc2-c2nc(C)no2)C3=O)n1 [Example 2.10, 9-(4,6-Dimethylpyrimidin-2-yl)-4-(2-(3-methyl-1,2,4-oxadiazol-5-yl)benzyl)-1-oxa-4,9-diazaspiro[5.5]undecan-5-one] | 0.072 µM | 4.61 µM | 0.144 µM | – | 35%
Cc1cc(C)nc(N2CCC3(CC2)OCCN(Cc2nn(C)cc2-c2ccccc2)C3=O)n1 [Example 2.11, 9-(4,6-Dimethylpyrimidin-2-yl)-4-((1-methyl-4-phenyl-1H-pyrazol-3-yl)methyl)-1-oxa-4,9-diazaspiro[5.5]undecan-5-one] | 0.075 µM | 3.18 µM | 0.229 µM | 2.32 µM | –
Cc1cc(C)nc(N2CCC3(CC2)OCCN(Cc2n[nH]cc2-c2ccccc2)C3=O)n1 [Example 2.13, 9-(4,6-Dimethylpyrimidin-2-yl)-4-((4-phenyl-1H-pyrazol-3-yl)methyl)-1-oxa-4,9-diazaspiro[5.5]undecan-5-one] | 0.038 µM | 1.56 µM | 0.143 µM | 1.5 µM | –
COc1cccc(-c2n[nH]nc2CN2CCOC3(CCN(c4nc(C)cc(C)n4)CC3)C2=O)c1 [Example 2.17, 9-(4,6-Dimethylpyrimidin-2-yl)-4-((5-(3-methoxyphenyl)-2H-1,2,3-triazol-4-yl)methyl)-1-oxa-4,9-diazaspiro[5.5]undecan-5-one] | 0.001 µM | 0.363 µM | 0.016 µM | 0.22 µM | –
COc1cc(C)nc(N2CCC3(CC2)OCCN(Cc2c[nH]c4ccccc24)C3=O)n1 [Example 2.18, 4-((1H-Indol-3-yl)methyl)-9-(4-methoxy-6-methylpyrimidin-2-yl)-1-oxa-4,9-diazaspiro[5.5]undecan-5-one] | 0.004 µM | 0.625 µM | 0.023 µM | 0.383 µM | –
COc1cc(C)nc(N2CCC3(CC2)OCCN(Cc2c[nH]c4ncccc24)C3=O)n1 [Example 2.19, 4-((1H-Pyrrolo[2,3-b]pyridin-3-yl)methyl)-9-(4-methoxy-6-methylpyrimidin-2-yl)-1-oxa-4,9-diazaspiro[5.5]undecan-5-one] | 0.035 µM | 3.52 µM | 0.184 µM | 1.49 µM | –
COc1cccc(-c2ocnc2CN2CCOC3(CCN(c4nc(C)cc(OC)n4)CC3)C2=O)c1 [Example 2.20, 9-(4-Methoxy-6-methylpyrimidin-2-yl)-4-((5-(3-methoxyphenyl)oxazol-4-yl)methyl)-1-oxa-4,9-diazaspiro[5.5]undecan-5-one] | 0.002 µM | 0.057 µM | 0.007 µM | 0.043 µM | –
CCc1cc(C)nc(N2CCC3(CC2)OCCN(Cc2c[nH]c4ccccc24)C3=O)n1 [Example 2.23, 4-((1H-indol-3-yl)methyl)-9-(4-ethyl-6-methylpyrimidin-2-yl)-1-oxa-4,9-diazaspiro[5.5]undecan-5-one] | 0.037 µM | 1.57 µM | 0.068 µM | 0.582 µM | –
O=C1N(Cc2c[nH]c3ccccc23)CCC12CCN(c1cnc3ccccc3n1)CC2 [Example 3.2, 2-((1H-Indol-3-yl)methyl)-8-(quinoxalin-2-yl)-2,8-diazaspiro[4.5]decan-1-one] | 0.041 µM | 0.92 µM | 0.121 µM | 1.06 µM | –
COc1cc(C)nc(N2CCC3(CCN(Cc4ccccc4-c4nc(C)no4)C3=O)CC2)n1 [Example 3.20, 8-(4-Methoxy-6-methyl-pyrimidin-2-yl)-2-[2-(3-methyl-[1,2,4]oxadiazol-5-yl)-benzyl]-2,8-diaza-spiro[4.5]decan-1-one] | 0.043 µM | 7.67 µM | 0.328 µM | 1.64 µM | –
COc1cc(C)nc(N2CCC3(CCN(Cc4nn(C)nc4-c4ccccc4)C3=O)C2)n1 (stereo not shown) [Example 5.43, 7-(4-methoxy-6-methylpyrimidin-2-yl)-2-((2-methyl-5-phenyl-2H-1,2,3-triazol-4-yl)methyl)-2,7-diazaspiro[4.4]nonan-1-one] | 0.029 µM | 0.339 µM | 0.118 µM | 0.421 µM | –
COc1cc(C)nc(N2CCC3(CCN(Cc4nn(C)nc4-c4cccc(C)c4)C3=O)C2)n1 (stereo not shown) [Example 5.44, 7-(4-methoxy-6-methylpyrimidin-2-yl)-2-((2-methyl-5-(m-tolyl)-2H-1,2,3-triazol-4-yl)methyl)-2,7-diazaspiro[4.4]nonan-1-one] | 0.0034 µM | 0.106 µM | 0.02 µM | 0.068 µM | –
COc1cccc(-c2nn(C)nc2CN2CCC3(CCN(c4nc(C)cc(OC)n4)C3)C2=O)c1 (stereo not shown) [Example 5.45, 7-(4-methoxy-6-methylpyrimidin-2-yl)-2-((5-(3-methoxyphenyl)-2-methyl-2H-1,2,3-triazol-4-yl)methyl)-2,7-diazaspiro[4.4]nonan-1-one] | 0.0028 µM | 0.097 µM | 0.021 µM | 0.029 µM | –
CN(C)c1cc(C(F)(F)F)nc(N2CCC3(CCN(Cc4c[nH]c5ccccc45)C3=O)C2)n1 (stereo not shown) [Example 5.47, 2-((1H-indol-3-yl)methyl)-7-(4-(dimethylamino)-6-(trifluoromethyl)pyrimidin-2-yl)-2,7-diazaspiro[4.4]nonan-1-one] | 0.097 µM | 1.03 µM | 0.518 µM | 0.193 µM | –
COc1cc(C)nc(N2CCC3(CCCN(Cc4c[nH]c5ccccc45)C3=O)C2)n1 (stereo not shown) [Example 7.1, 7-((1H-Indol-3-yl)methyl)-2-(4-methoxy-6-methylpyrimidin-2-yl)-2,7-diazaspiro[4.5]decan-6-one] | 0.01 µM | 0.014 µM | 0.013 µM | 0.031 µM | –
COc1ccnc(N2CCC3(CCCN(Cc4c[nH]c5ccccc45)C3=O)C2)n1 (stereo not shown) [Example 7.4, 7-((1H-Indol-3-yl)methyl)-2-(4-methoxypyrimidin-2-yl)-2,7-diazaspiro[4.5]decan-6-one] | 0.059 µM | 0.201 µM | 0.152 µM | 0.317 µM | –
